In patent US20250179437A1, “L[…] FOR PRODUCING PRIMITIVE STREAK CELLS” (UNIVERSITY HEALTH NETWORK, priority 2023, published 2025):

Legend:
Type in all cases: cell-based, human
H1 hPSC line [1] = assay: Differentiation of hPSCs into primitive streak and definitive endoderm with or without Latrunculin A (flow cytometry)
Source text: Human pluripotent stem cell (hPSC) lines: For protocol optimization, the H1 hPSC line^1, purchased from WiCell Research Institute (Madison, USA) was employed. This work has received approval from the Stem Cell Oversight Committee (SCOC) as the focus of a Canadian Institutes of Health Research (CIHR) Canada Graduate Scholarship-Doctoral (CGS-D) award.
hPSC expansion and passage: Cells were cryopreserved in a media composed of 50% IMDM (Life Technologies #12440) or StemMACS iPS-brew XF (Miltenyi Biotec #130-104-368), 40% Fetal Bovine Serum (FBS, Gibco #12483-020), and 10% DMSO (Millipore Sigma #D2650). Cryopreserved hPSCs were thawed in DMEM:F12 (Wisent #319-085-CL) at a ratio of 1 mL cells: 9 mL media, centrifuged at 1000 revolutions per minute (RPM) for 5 minutes, and resuspended in StemMACS iPS-brew XF with 10 μM ROCK1/2 inhibitor (Y-27652, Tocris Biosciences #1254). Cells were maintained in monolayer culture in StemMACS iPS-brew XF media with daily media changes. Upon reaching full confluency, cells were passaged by single cell dissociation using TrypLE (Life Technologies #12605) with 1% DNase 1 mg/mL (Calbiochem 260913), centrifuged for 5 min at 1000 RPM, and resuspended in StemMACS iPS-brew XF with 10 μM ROCK1/2 inhibitor (Y-27652, Tocris Biosciences #1254). Cells were split at a cell line-specific ratio to ensure confluency within 2-3 days, upon which differentiation was initiated.
hPSC differentiation: On day 0, confluent cultures of hPSCs in monolayer format were washed with Calcium- and Magnesium-free dPBS (Corning #20-031-CV) and fed with media with or without Latrunculin A to generate primitive streak (day 1) and definitive endoderm (day 3). The media used at day 0, 1, and 2 are specified in the tables below (Tables 1.1-1.2). When reagents were obtained from suppliers as liquids, the concentration is provided as a percentage of reagent volume/base media volume. When reagents were provided as desiccated powders that required reconstitution, the concentration is specified in either mass or molarity per unit volume of fully reconstituted media. All media were supplemented with 1% vol/vol Gibco Penicillin-Streptomycin (ThermoFisher Scientific #15070063). […]
Dissociated cells in suspension culture were filtered through a 35 micrometer cell strainer, centrifuged, and the supernatant was discarded. […] Cells were analyzed on a BD LSRFortessa flow cytometer. […] Experimental data was analyzed using FlowJo Software (BD).
Cell-surface flow cytometry of hPSC-derived cells: Dissociated cells were directly incubated with directly conjugated primary antibodies (table 1.3) in staining buffer for 20 minutes at room temperature. Cells were then washed once, and resuspended in staining buffer containing 1:100,000 DAPI (Biotium #40043) and directly analyzed by flow cytometry. […]

H1 hPSC line [2] = assay: Differentiation of hPSC-derived definitive endoderm to NKX2-1+ lung progenitors (flow cytometry, immunofluorescence); conditions: vs definitive endoderm generated in the absence of LatA
Source text: (§1) hPSC differentiation: On day 0, confluent cultures of hPSCs in monolayer format were washed with Calcium- and Magnesium-free dPBS (Corning #20-031-CV) and fed with media with or without Latrunculin A to generate primitive streak (day 1) and definitive endoderm (day 3). The media used at day 0, 1, and 2 are specified in the tables below (Tables 1.1-1.2). When reagents were obtained from suppliers as liquids, the concentration is provided as a percentage of reagent volume/base media volume. When reagents were provided as desiccated powders that required reconstitution, the concentration is specified in either mass or molarity per unit volume of fully reconstituted media. All media were supplemented with 1% vol/vol Gibco Penicillin-Streptomycin (ThermoFisher Scientific #15070063).
(§2) Following definitive endoderm formation, cells were treated with differentiation media to generate either pancreatic or lung cells.
In an embodiment, the method comprises steps for differentiate the endodermal cell population to lung cells. […]
Dissociated cells in suspension culture were filtered through a 35 micrometer cell strainer, centrifuged, and the supernatant was discarded. […] Cells were analyzed on a BD LSRFortessa flow cytometer. […] Experimental data was analyzed using FlowJo Software (BD). […]

H1 hPSC line [3] = assay: Differentiation of hPSC-derived definitive endoderm to pancreatic progenitors and beta-like cells (flow cytometry)
Source text: as §1, §2
In an embodiment, the method comprises steps for differentiate the endodermal cell population to pancreatic cells. For example, as described herein differentiation from a an endodermal cell at day 3 differentiation to pancreatic lineages involves a series of steps that will differentiate cells to pancreatic progenitors cells at day 12-13 as described by Nostro et al 2015^2 or Yung and Poon 2019^3 and endocrine cells from day 20 onwards as described by Rezania et al 20144, Pagliuca et al., 2014^5, Hogrebe et al. 2020^6 or Balboa et al., 2022^7, where typically stage 1 is known to generate definitive endoderm, stage 4 is known to generate pancreatic progenitors and stage 6 is known to generate islet-like cells. Stage 2 can span for example 2 to 3 days and stage 3 can span for example 1 to 4 days. Stage 2 for example can include contacting the population to be differentiated (e.g. the Stage 1 endoderm cells) with Fibroblast Growth Factor 10 (FGF10), optionally wingless-type MMTV integration site family member 3A (Wnt3a), optionally Retinoic acid (RA), optionally Activin A, and optionally Dorsomorphin to produce Stage 2 differentiated cells. […]

[4] = day 13, vs control without LatA

C/C1=C/C(=O)O[C@@H]2C[C@@H](CC[C@H](C)/C=C\C=C\CC1)O[C@@](O)([C@@H]1CSC(=O)N1)C2 [Latrunculin A]
efficiency of primitive streak cell generation (H1 hPSC line [1]; Latrunculin A-treated hPSCs): high efficiencies | BRA+ primitive streak cells generated (H1 hPSC line [1]; high-density hPSCs, MEF-free, LatA at day 0, 24 hours after starting differentiation): nearly pure populations | frequency of FOXA2+SOX17+ definitive endoderm (DE)-like cells (H1 hPSC line [1]; high-density hPSCs, day 3 of differentiation, vs control without LatA): significantly higher frequencies | impairment of high-density cells in their ability to generate BRA+ cells (H1 hPSC line [1]; high-density vs low-density hPSCs, LatA treatment at day 0): completely abrogated | frequency of NKX2-1+ lung progenitors (H1 hPSC line [2]): much higher frequencies | PDX1−NKX6-1− cells (H1 hPSC line [3]; [4]): greatly reduced | frequency of PDX1+NKX6.1+ hPSC-derived pancreatic progenitors (H1 hPSC line [3]; [4]): greater frequency | frequency of NKX6-1+CPEP+ beta-like cells (H1 hPSC line [3]; day 23 of differentiation, vs control protocol): greater frequency
